The values below come from patent US8828930B2, “Hepatitis C virus NS3 protease inhibitors” (Merck Sharp & Dohme Corp., priority 2009, dated 2014).

For data set [1], the target named is NS3/4A protease gt 1b A156V (Hepatitis C virus genotype 1b, UniProt P26663, A1182V). Description: HCV NS3 protease time-resolved fluorescence (TRF) assay, NS3/4A inhibitory activity (Ki), gt 1b A156V. Format: biochemical. The method, then:
(§1) The HCV NS3 protease inhibitory activity of the present compounds may be tested using assays known in the art. One such assay is HCV NS3 protease time-resolved fluorescence (TRF) assay as described below and in WO 2006/102087. Other examples of such assays are described in, for example, WO 2005/046712. HCV NS3 protease inhibitors, such as those described herein have a Ki less than 50 μM, such as less than 10 μM, and less than 100 nM. Ki is determined by an NS3 protease assay. The assay is performed in a final volume of 100 μl in assay buffer containing 50 mM HEPES, pH 7.5, 150 mM NaCl, 15% glycerol, 0.15% TRITON X-100, 10 mM DTT, and 0.1% PEG 8000. NS3 protease is preincubated with various concentrations of inhibitors in DMSO for 30 minutes. The reaction is initiated by adding the TRF peptide substrate (final concentration 100 nM). NS3 mediated hydrolysis of the substrate is quenched after 1 hour at room temperature with 100 μl of 500 mM MES, pH 5.5. Product fluorescence is detected using either a VICTOR V2 or FUSION fluorophotometer (PERKIN ELMER LIFE AND ANALYTICAL SCIENCES) with excitation at 340 nm and emission at 615 nm with a 400 μs delay. Testing concentrations of different enzyme forms are selected to result in a signal to background ratio (SIB) of 10-30. IC50 values are derived using a standard four-parameter fit to the data. Ki values are derived from IC50 values using the following formula, IC50=Ki(1+[S]/KM), Eqn (1), where [S] is the concentration of substrate peptide in the reaction and KM is the Michaelis constant. See Paola Gallinari et al., Modulation of Hepatitis C Virus NS3 Protease and Helicase Activities through the Interaction with NS4A, 38 BIOCHEM. 5620 (1999); Paola Gallinari et al., Multiple Enzymatic Activities Associated with Recombinant NS3 Protein of Hepatitis C Virus, 72(8) J. VIROLOGY 6758 (1998); Mariana Taliani et al., A Continuous Assay of Hepatitis C Virus Protease Based on Resonance Energy Transfer Depsipeptide Substrates, 240 ANAL. BIOCHEM. 60 (1996).
(§2) This NS3 protease assay was performed in a final volume of 100 μl assay buffer containing 50 mM HEPES, pH 7.5, 150 mM NaCl, 15% glycerol, 0.15% TRITON X-100, 10 mM DTT, and 0.1% PEG 8000. NS3/4A protease was pre-incubated with various concentrations of inhibitors in DMSO for 30 minutes. The reaction was initiated by adding the TRF peptide substrate (final concentration 100 nM). NS3 mediated hydrolysis of the substrate was quenched after 1 hour at RT with 100 μl of 500 mM MES, pH 5.5. Product fluorescence was detected using either a V1CTOR V2 or FUSION fluorophotometer (PERKIN ELMER LIFE AND ANALYTICAL SCIENCES) with excitation at 340 nm and emission at 615 nm with a 400 us delay. Testing concentrations of different enzyme forms were selected to result in a signal to background ratio (SIB) of 10-30. IC50 values were derived using a standard four-parameter fit to the data. K, values are derived from IC50 values using the following formula, IC50=Ki(1+[S]/KM), Eqn (1), where [S] is the concentration of substrate peptide in the reaction and KM is the Michaelis constant. See Paola Gallinari et al., Modulation of Hepatitis C Virus NS3 Protease and Helicase Activities through the Interaction with NS4A, 38 BIOCHEM. 5620 (1999); Paola Gallinari et al., Multiple Enzymatic Activities Associated with Recombinant NS3 Protein of Hepatitis C Virus, 72(8) J. VIROLOGY 6758 (1998); Mariana Milani et al., A Continuous Assay of Hepatitis C Virus Protease Based on Resonance Energy Transfer Depsipeptide Substrates, 240 ANAL. BIOCHEM. 60 (1996); Shi-Shan Mao et al., A time-resolved, internally quenched fluorescence assay to characterize inhibition of hepatitis C virus nonstructural protein 3-4A protease at low enzyme concentrations, 373 ANALYTICAL BIOCHEMISTRY 1 (2008). Measuring Compound Inhibitory Potency (Replicon EC50 (nM))

Data set [2] deals with HCV gt 1b replicon. Description: HCV replicon assay, compound inhibitory potency (Replicon EC50). Format: cell-based. The settings on record: Hepatitis C virus, GT1B. The method, then: Measurement of inhibition by compounds was performed using the HCV replicon system. Several different replicons encoding different HCV genotypes or mutations were used. In addition, potency measurements were made using different formats of the replicon assay, including different ways of measurements and different plating formats. See Jan M. Vrolijk et al., A replicon-based bioassay for the measurement of interferons in patients with chronic hepatitis C, 110 J. VIROLOGICAL METHODS 201 (2003); Steven S. Carroll et al., Inhibition of Hepatitis C Virus RNA Replication by 2′-Modified Nucleoside Analogs, 278(14) J. BIOLOGICAL CHEMISTRY 11979 (2003). However, the underlying principles are common to all of these determinations, and are outlined below.
Stable neomycin phosphotransferase encoding replicon-harboring cell lines were used, so all cell lines were maintained under G418 selection prior to the assay. In some cases the cell lines encoded a luciferase:NEO FUSION and could be assayed either directly by determination of RNA copy number, or indirectly through measurement of the luciferase activity.
To initiate an assay, replicon cells were plated in the presence of a dilution series of test compound in the absence of G418. Typically, the assays were performed in a 96-well plate format for manual operation, or a 384-well plate in an automated assay. Replicon cells and compound were incubated for 24 to 48 hours, depending on the assay. At the end of the assay, cells are washed free of media and compound and then lysed. For direct quantitation, RNA levels were measured by 32P-probe hybridization and protection, or in a TAQMAN-based assay and normalized to cellular cyclophilin A RNA levels. In some cases, luciferase activity was measured using a conventional luciferase assay. In all cases, EC50 determinations were calculated as a percent of a DMSO control by fitting the data to a four-parameter fit function.

Data set [3] can be described thus: Plasma and liver concentrations and pharmacokinetics (Rat PK). Format: in vivo. Further details: Rat PK 5 mpk AUC: unit not given here. The protocol: Test compounds were dissolved in a suitable dosing vehicle for i.v. administration (e.g., 20%:60%:20% DMSO:PEG400:H2O) or per oral administration (e.g., 10% POLYSORBATE80:90% H2O or 100% PEG400). Animals were administered (n=2 or 3) using a crossover study design for non-rodents. Plasma samples were collected at time points between 2 minutes and 24 hours, and compound levels were determined by RP-LC/MS/MS. Liver samples were collected post-mortem in rat. Liver samples were weighed, homogenized, and diluted using techniques known to those skilled in the art, and compound levels were determined by RP-LC/MS/MS.
Pharmacokinetic parameters were calculated based on non-compartmental analysis (e.g., using WATSON, WINNOLIN). Predose concentrations that were below the limit of quantitation (BLQ) were assigned a value of 0, Standard pharmacokinetic parameters CLp, Vdss, half-life (only for IV), % F, Cmax, Tmax, AUC0-last, AUC0-infinity were calculated. AUC values were calculated using linear trapezoidal method for ascending concentrations and the log trapezoidal method for descending concentrations.

The target in data set [4] is NS3/4A protease gt 3a (Hepatitis C virus genotype 3a, UniProt Q81258). Description: HCV NS3 protease time-resolved fluorescence (TRF) assay, NS3/4A inhibitory activity (Ki), gt 3a. The settings on record: NS3/4A enzyme. It counts as biochemical. The method, then:
as §1, §2

In data set [5] the target is NS3/4A protease gt 1b (Hepatitis C virus genotype 1b, UniProt P26663). Description: HCV NS3 protease time-resolved fluorescence (TRF) assay, NS3/4A inhibitory activity (Ki), gt 1b. It counts as biochemical. The settings on record: NS3/4A enzyme. The protocol: as §1, §2

Each structure is given as a SMILES string. Read-outs that look alike come from different tables or passages of the source.

For orientation: Ki means a measure of affinity in units of concentration, obtained from inhibition or displacement. The EC50 is the midpoint of the concentration-response curve. Consider `CC1(S(=O)(=O)NC(=O)[C@@]23C[C@H]2/C=C\CCCCC[C@@H]2NC(=O)O[C@@H]4C[C@H]4CCCCCc4nc5ccccc5nc4O[C@@H]4C[C@@H](C(=O)N3)N(C4)C2=O)CC1` [Example 9, (3R,20R,22R,26S,32Z,34S,36R,39S)—N-[(1-Methylcyclopropyl)sulfonyl]-24,38,40-trioxo-4,23-dioxa-1,6,13,25,37-pentaazaheptacyclo[24.13.1.1^3,39.0^5,14.0^7,12.0^20,22.0^34,36]hentetraconta-5,7,9,11,13,32-hexaene-36-carboxamide], for which the Ki worked out at 800 pM in data set [1], 520 pM in data set [4] and 30 pM in data set [5]. Further, the 50% effective concentration (EC50) is 2000 pM in data set [2] (10% fetal bovine serum, read-out: gt 1b Replicon EC50 10% FBS) and 11000 pM in data set [2] (50% normal human serum, read-out: gt 1b Replicon EC50 50% NHS). Besides, the concentration at 4 h in data set [3] (5 mg/kg, 5 mpk, liver concentration at 4 h) came out at 20 µM. Further, in data set [3] (area under the plasma concentration/time curve), the “Rat PK 5 mpk AUC” value is 0.26.
